Results as given in ChEMBL document CHEMBL1201862, “PubChem BioAssay data set” (2004).
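Results reflect a 48-hour exposure of cells in 96-well plates to compound at five concentrations. Here, GI50 denotes the concentration required for 50% inhibition of growth.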 Calls of active or inactive are those of the source. Cut-off read from the data, not from the text of the source: active = GI50 up to about 1.1 µM and inactive = higher.

Key:
Assay in all cases: NCI anticancer screen, dose series, 48 h
HCT-15 = tested on: HCT-15
K562 = tested on: K562
Hs-578T = tested on: Hs-578T
NCI-H460 = tested on: NCI-H460
EKVX = tested on: EKVX
OVCAR-8 = tested on: OVCAR-8
HL-60 = tested on: HL-60
SK-MEL-28 = tested on: SK-MEL-28
SNB-19 = tested on: SNB-19
UACC-62 = tested on: UACC-62
ACHN = tested on: ACHN
MDA-MB-231 = tested on: MDA-MB-231
SNB-75 = tested on: SNB-75
NCI/ADR-RES = tested on: NCI/ADR-RES
U-251 = tested on: U-251
HCC 2998 = tested on: HCC 2998
LOX IMVI = tested on: LOX IMVI
OVCAR-5 = tested on: OVCAR-5
MDA-N = tested on: MDA-N
MCF7 = tested on: MCF7
HOP-62 = tested on: HOP-62
Malme-3M = tested on: Malme-3M
MOLT-4 = tested on: MOLT-4
A498 = tested on: A498
KM12 = tested on: KM12
A549 = tested on: A549
PC-3 = tested on: PC-3
OVCAR-3 = tested on: OVCAR-3
UACC-257 = tested on: UACC-257
BT-549 = tested on: BT-549
DU-145 = tested on: DU-145
SW-620 = tested on: SW-620
SN12C = tested on: SN12C
NCI-H226 = tested on: NCI-H226
SF-268 = tested on: SF-268
RPMI-8226 = tested on: RPMI-8226
SR = tested on: SR
HCT-116 = tested on: HCT-116
SK-OV-3 = tested on: SK-OV-3
M14 = tested on: M14
SK-MEL-2 = tested on: SK-MEL-2
MDA-MB-435 = tested on: MDA-MB-435
SF-295 = tested on: SF-295
HT-29 = tested on: HT-29
786-0 = tested on: 786-0
OVCAR-4 = tested on: OVCAR-4
UO-31 = tested on: UO-31
NCI-H522 = tested on: NCI-H522
IGROV-1 = tested on: IGROV-1
HOP-92 = tested on: HOP-92
SF-539 = tested on: SF-539
T47D = tested on: T47D
TK-10 = tested on: TK-10
SK-MEL-5 = tested on: SK-MEL-5
CAKI-1 = tested on: CAKI-1
CCRF-CEM = tested on: CCRF-CEM
COLO 205 = tested on: COLO 205
NCI-H23 = tested on: NCI-H23

Structure (SMILES): O=S1(=O)Cc2ccc3c4c2-c2c(ccc5ccc(c-4c25)CS(=O)(=O)C3)C1
- GI50 (HCT-15): 22.9 µM
- GI50 (K562): 26.7 µM (inactive)
- GI50 (Hs-578T): > 100 µM (inactive)
- GI50 (NCI-H460): 63.2 µM (inactive)
- GI50 (EKVX): 89.1 µM (inactive)
- GI50 (OVCAR-8): 90.2 µM (inactive)
- GI50 (HL-60): 16.3 µM (inactive)
- GI50 (SK-MEL-28): > 100 µM (inactive)
- GI50 (SNB-19): > 100 µM (inactive)
- GI50 (UACC-62): 87.1 µM (inactive)
- GI50 (ACHN): 20.7 µM (inactive)
- GI50 (MDA-MB-231): > 100 µM (inactive)
- GI50 (SNB-75): 69.7 µM (inactive)
- GI50 (NCI/ADR-RES): > 100 µM (inactive)
- GI50 (U-251): > 100 µM (inactive)
- GI50 (HCC 2998): > 100 µM (inactive)
- GI50 (LOX IMVI): 44.6 µM (inactive)
- GI50 (OVCAR-5): > 100 µM (inactive)
- GI50 (MDA-N): > 100 µM (inactive)
- GI50 (MCF7): 92.3 µM (inactive)
- GI50 (HOP-62): > 100 µM (inactive)
- GI50 (Malme-3M): > 100 µM (inactive)
- GI50 (MOLT-4): 23.1 µM (inactive)
- GI50 (A498): > 100 µM (inactive)
- GI50 (KM12): 41.9 µM (inactive)
- GI50 (A549): > 100 µM (inactive)
- GI50 (PC-3): 93.1 µM (inactive)
- GI50 (OVCAR-3): > 100 µM (inactive)
- GI50 (UACC-257): > 100 µM (inactive)
- GI50 (BT-549): 91.8 µM (inactive)
- GI50 (DU-145): > 100 µM (inactive)
- GI50 (SW-620): 71 µM (inactive)
- GI50 (SN12C): 82.4 µM (inactive)
- GI50 (NCI-H226): > 100 µM (inactive)
- GI50 (SF-268): 53.1 µM (inactive)
- GI50 (RPMI-8226): 20 µM (inactive)
- GI50 (SR): 10.2 µM (inactive)
- GI50 (HCT-116): 46.3 µM (inactive)
- GI50 (SK-OV-3): > 100 µM (inactive)
- GI50 (M14): > 100 µM (inactive)
- GI50 (SK-MEL-2): > 100 µM (inactive)
- GI50 (MDA-MB-435): > 100 µM (inactive)
- GI50 (SF-295): > 100 µM (inactive)
- GI50 (HT-29): 57 µM (inactive)
- GI50 (786-0): 49.5 µM (inactive)
- GI50 (OVCAR-4): > 100 µM (inactive)
- GI50 (UO-31): 43.3 µM (inactive)
- GI50 (NCI-H522): 46.8 µM (inactive)
- GI50 (IGROV-1): 29.8 µM (inactive)
- GI50 (HOP-92): 89.9 µM (inactive)
- GI50 (SF-539): 51.9 µM (inactive)
- GI50 (T47D): 55.3 µM (inactive)
- GI50 (TK-10): 79.6 µM (inactive)

Structure (SMILES): N#CC1(C#N)C(c2ccccc2)C=CC(c2ccc([N+](=O)[O-])cc2)C1(C#N)C#N (stereo not given)
- GI50 (HCT-15): 3.69 µM
- GI50 (K562): 3.01 µM (inactive)
- GI50 (Hs-578T): 17.9 µM (inactive)
- GI50 (NCI-H460): 30.3 µM (inactive)
- GI50 (EKVX): 14.8 µM (inactive)
- GI50 (OVCAR-8): 11.2 µM (inactive)
- GI50 (HL-60): 0.223 µM (active)
- GI50 (SK-MEL-28): 15.8 µM (inactive)
- GI50 (SNB-19): 15.1 µM (inactive)
- GI50 (UACC-62): 12 µM (inactive)
- GI50 (ACHN): 3.43 µM (inactive)
- GI50 (MDA-MB-231): 13.4 µM (inactive)
- GI50 (SNB-75): 24.7 µM (inactive)
- GI50 (SK-MEL-5): 10.7 µM (inactive)
- GI50 (NCI/ADR-RES): 8.38 µM (inactive)
- GI50 (U-251): 20.4 µM (inactive)
- GI50 (HCC 2998): 19.4 µM (inactive)
- GI50 (LOX IMVI): 2.35 µM (inactive)
- GI50 (OVCAR-5): 17.1 µM (inactive)
- GI50 (MDA-N): 6.22 µM (inactive)
- GI50 (MCF7): 5.98 µM (inactive)
- GI50 (HOP-62): 17.3 µM (inactive)
- GI50 (MOLT-4): 2.3 µM (inactive)
- GI50 (A498): 16.6 µM (inactive)
- GI50 (KM12): 22.1 µM (inactive)
- GI50 (A549): 17.7 µM (inactive)
- GI50 (PC-3): 12.2 µM (inactive)
- GI50 (CAKI-1): 3.66 µM (inactive)
- GI50 (OVCAR-3): 9.98 µM (inactive)
- GI50 (UACC-257): 16.3 µM (inactive)
- GI50 (BT-549): 10.4 µM (inactive)
- GI50 (CCRF-CEM): 0.278 µM (active)
- GI50 (DU-145): 14.2 µM (inactive)
- GI50 (SW-620): 3.66 µM (inactive)
- GI50 (SN12C): 4.83 µM (inactive)
- GI50 (NCI-H226): 17.3 µM (inactive)
- GI50 (SF-268): 17.5 µM (inactive)
- GI50 (RPMI-8226): 2.91 µM (inactive)
- GI50 (SR): 2.53 µM (inactive)
- GI50 (HCT-116): 3.8 µM (inactive)
- GI50 (SK-OV-3): 18.5 µM (inactive)
- GI50 (M14): 4.59 µM (inactive)
- GI50 (SK-MEL-2): 17.1 µM (inactive)
- GI50 (MDA-MB-435): 3.37 µM (inactive)
- GI50 (SF-295): 18.5 µM (inactive)
- GI50 (HT-29): 3.61 µM (inactive)
- GI50 (786-0): 2.67 µM (inactive)
- GI50 (OVCAR-4): 16.5 µM (inactive)
- GI50 (UO-31): 13.7 µM (inactive)
- GI50 (COLO 205): 1.57 µM (inactive)
- GI50 (NCI-H522): 3.21 µM (inactive)
- GI50 (IGROV-1): 14 µM (inactive)
- GI50 (HOP-92): 3.43 µM (inactive)
- GI50 (SF-539): 2.81 µM (inactive)
- GI50 (T47D): 2.61 µM (inactive)
- GI50 (NCI-H23): 12.4 µM (inactive)
- GI50 (TK-10): 3.65 µM (inactive)

Structure (SMILES): NC(=O)N/N=C1\C[C@H]2CCCC[C@H]2C1
- GI50 (HCT-15): > 100 µM
- GI50 (K562): > 100 µM (inactive)
- GI50 (Hs-578T): > 100 µM (inactive)
- GI50 (NCI-H460): > 100 µM (inactive)
- GI50 (EKVX): > 100 µM (inactive)
- GI50 (OVCAR-8): 83.4 µM (inactive)
- GI50 (HL-60): > 100 µM (inactive)
- GI50 (SK-MEL-28): > 100 µM (inactive)
- GI50 (SNB-19): 84.7 µM (inactive)
- GI50 (UACC-62): > 100 µM (inactive)
- GI50 (ACHN): > 100 µM (inactive)
- GI50 (MDA-MB-231): > 100 µM (inactive)
- GI50 (SNB-75): > 100 µM (inactive)
- GI50 (SK-MEL-5): > 100 µM (inactive)
- GI50 (NCI/ADR-RES): > 100 µM (inactive)
- GI50 (U-251): > 100 µM (inactive)
- GI50 (HCC 2998): > 100 µM (inactive)
- GI50 (LOX IMVI): > 100 µM (inactive)
- GI50 (OVCAR-5): > 100 µM (inactive)
- GI50 (MDA-N): > 100 µM (inactive)
- GI50 (MCF7): > 100 µM (inactive)
- GI50 (HOP-62): > 100 µM (inactive)
- GI50 (MOLT-4): > 100 µM (inactive)
- GI50 (A498): > 100 µM (inactive)
- GI50 (KM12): > 100 µM (inactive)
- GI50 (A549): > 100 µM (inactive)
- GI50 (PC-3): > 100 µM (inactive)
- GI50 (CAKI-1): > 100 µM (inactive)
- GI50 (OVCAR-3): > 100 µM (inactive)
- GI50 (UACC-257): > 100 µM (inactive)
- GI50 (BT-549): 42.7 µM (inactive)
- GI50 (DU-145): > 100 µM (inactive)
- GI50 (SW-620): > 100 µM (inactive)
- GI50 (SN12C): > 100 µM (inactive)
- GI50 (NCI-H226): > 100 µM (inactive)
- GI50 (SF-268): > 100 µM (inactive)
- GI50 (RPMI-8226): > 100 µM (inactive)
- GI50 (SR): > 100 µM (inactive)
- GI50 (HCT-116): > 100 µM (inactive)
- GI50 (SK-OV-3): > 100 µM (inactive)
- GI50 (M14): > 100 µM (inactive)
- GI50 (SK-MEL-2): > 100 µM (inactive)
- GI50 (MDA-MB-435): > 100 µM (inactive)
- GI50 (SF-295): > 100 µM (inactive)
- GI50 (HT-29): > 100 µM (inactive)
- GI50 (786-0): > 100 µM (inactive)
- GI50 (OVCAR-4): > 100 µM (inactive)
- GI50 (UO-31): > 100 µM (inactive)
- GI50 (COLO 205): > 100 µM (inactive)
- GI50 (NCI-H522): > 100 µM (inactive)
- GI50 (IGROV-1): > 100 µM (inactive)
- GI50 (HOP-92): > 100 µM (inactive)
- GI50 (SF-539): > 100 µM (inactive)
- GI50 (T47D): > 100 µM (inactive)
- GI50 (TK-10): > 100 µM (inactive)
